The target in one test is GDP-loaded KRAS G12D (Homo sapiens (Human), UniProt P01116, G12D). The experiment in a line: KRAS G12D (GDP) biochemical assay (TR-FRET probe displacement). Format: binding. Particulars: 2 hours. In outline: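 TR-FRET probe displacement: 1:3 DMSO serial dilutions pre-incubated 30 min with GDP-bound KRAS G12D, followed by Eu-streptavidin/probe for 2 h at room temperature (Hepes pH 7.4, NaCl, MgCl2, Tween-20 buffer). IC50 defined as concentration halving TR-FRET ratio, from sigmoidal dose-response fit.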
GDP-loaded KRAS G12D, sequence (P01116-2 other isoform, or with tags, fused parts or gaps G12D): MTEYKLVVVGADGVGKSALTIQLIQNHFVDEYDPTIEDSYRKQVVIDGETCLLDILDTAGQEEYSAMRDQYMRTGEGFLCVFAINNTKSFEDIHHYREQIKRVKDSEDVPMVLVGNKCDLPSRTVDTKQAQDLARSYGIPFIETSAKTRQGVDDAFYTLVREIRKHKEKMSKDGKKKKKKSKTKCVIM

The subject of a further test is GP2D (KRAS G12D) cells. The experiment in a line: 2D cell viability assay (CellTiter-Glo). Format: cell-based. The note with it: GP2d, 96 h, 4 days. In outline:
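Viability was read by CellTiter-Glo after 4 days at 37 °C of 2D culture of KRAS G12D GP2D cells (1000/well, RPMI, 10% FBS) on pre-spotted threefold compound dilutions. EC50 was fitted with a sigmoidal dose-response model as the point of half-maximal luminescence loss.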
(ATP-based viability assays read luminescence as a measure of living cells.)

6 molecules from US20230339981A1, “KRAS G12D MODULATING COMPOUNDS” (priority 2022, published 2023) can be followed below.

The term IC50 denotes the midpoint of a concentration-inhibition curve. The term EC50 denotes the concentration that produces a half-maximal response. A higher EC50 goes with weaker potency.

Molecule `C#Cc1c(F)ccc2cccc(-c3nc4c5c(nc(OC[C@@]67CCCN6[C@H](COC(C(F)(F)F)(C(F)(F)F)C(F)(F)F)CC7)nc5c3F)N3C[C@H]5CC[C@H](N5)[C@@H]3[C@@H](C)C4)c12` [Example 83, (5S,5aS,6S,9R)-2-(8-ethynyl-7-fluoronaphthalen-1-yl)-1-fluoro-12-(((3S,7aS)-3-(((1,1,1,3,3,3-hexafluoro-2-(trifluoromethyl)propan-2-yl)oxy)methyl)tetrahydro-1H-pyrrolizin-7a(5H)-yl)methoxy)-5-methyl-4,5,5a,6,7,8,9,10-octahydro-3,10a,11,13,14-pentaaza-6,9-methanonaphtho[1,8-ab]heptalene] came in with an IC50 on GDP-loaded KRAS G12D of 3.2 nM. This molecule yielded a 50% effective concentration (EC50) with GP2D (KRAS G12D) cells of 67.4 nM.

As for `C#Cc1c(F)ccc2cccc(-c3nc4c5c(nc(OC[C@@]67CCCN6C[C@H](F)C7)nc5c3F)N3C[C@H]5CC[C@H](N5)[C@@H]3[C@@H](C)C4)c12` [Example 84, (5S,5aS,6S,9R)-2-(8-ethynyl-7-fluoronaphthalen-1-yl)-1-fluoro-12-(((2R,7aS)-2-fluorotetrahydro-1H-pyrrolizin-7a(5H)-yl)methoxy)-5-methyl-4,5,5a,6,7,8,9,10-octahydro-3,10a,11,13,14-pentaaza-6,9-methanonaphtho[1,8-ab]heptalene], the IC50 on GDP-loaded KRAS G12D amounted to 3.9 nM. For the same molecule, in the test with GP2D (KRAS G12D) cells, a half-maximal effect (EC50) was put at 27.7 nM.

Consider `C#Cc1c(F)ccc2cccc(-c3nc4c5c(nc(OC[C@@]67CCCN6C[C@@]6(CC6(F)F)C7)nc5c3F)N3C[C@H]5CC[C@H](N5)[C@@H]3[C@@H](C)C4)c12` [Example 85, (5S,5aS,6S,9R)-12-(((1S,7a'S)-2,2-difluorodihydro-1′H,3′H-spiro[cyclopropane-1,2′-pyrrolizin]-7a′(5′H)-yl)methoxy)-2-(8-ethynyl-7-fluoronaphthalen-1-yl)-1-fluoro-5-methyl-4,5,5a,6,7,8,9,10-octahydro-3,10a,11,13,14-pentaaza-6,9-methanonaphtho[1,8-ab]heptalene], for which the IC50 on GDP-loaded KRAS G12D stood at 6.8 nM. This molecule showed an EC50 with GP2D (KRAS G12D) cells of 58 nM.

In the case of `C#Cc1c(F)ccc2cccc(-c3nc4c5c(nc(OCC6(CN7CCC(OC(F)(F)F)CC7)CC6)nc5c3F)N3C[C@H]5CC[C@H](N5)[C@@H]3[C@@H](C)C4)c12` [Example 88, (5S,5aS,6S,9R)-2-(8-ethynyl-7-fluoronaphthalen-1-yl)-1-fluoro-5-methyl-12-((1-((4-(trifluoromethoxy)piperidin-1-yl)methyl)cyclopropyl)methoxy)-4,5,5a,6,7,8,9,10-octahydro-3,10a,11,13,14-pentaaza-6,9-methanonaphtho[1,8-ab]heptalene], the IC50 on GDP-loaded KRAS G12D was 36.5 nM. Moreover, the EC50 in the test with GP2D (KRAS G12D) cells was 255 nM.

In turn, `C#Cc1c(F)ccc2cccc(-c3nc4c5c(nc(OCC6(CN7CC[C@H](OC(F)(F)F)C7)CC6)nc5c3F)N3C[C@H]5CC[C@H](N5)[C@@H]3[C@@H](C)C4)c12` [Example 89, (5S,5aS,6S,9R)-2-(8-ethynyl-7-fluoronaphthalen-1-yl)-1-fluoro-5-methyl-12-((1-(((S)-3-(trifluoromethoxy)pyrrolidin-1-yl)methyl)cyclopropyl)methoxy)-4,5,5a,6,7,8,9,10-octahydro-3,10a,11,13,14-pentaaza-6,9-methanonaphtho[1,8-ab]heptalene] registered an IC50 at GDP-loaded KRAS G12D of 50.9 nM. The molecule also yielded an EC50 in the test with GP2D (KRAS G12D) cells of 379 nM.

Consider `C#Cc1c(F)ccc2cc(O)cc(-c3nc4c5c(nc(OC[C@@]67CCCN6C[C@H](F)C7)nc5c3F)N3C[C@H]5CC[C@H](N5)[C@@H]3[C@H](CC)C4)c12` [Example 90, 4-((5R,5aS,6S,9R)-5-ethyl-1-fluoro-12-(((2R,7aS)-2-fluorotetrahydro-1H-pyrrolizin-7a(5H)-yl)methoxy)-4,5,5a,6,7,8,9,10-octahydro-3,10a,11,13,14-pentaaza-6,9-methanonaphtho[1,8-ab]heptalen-2-yl)-5-ethynyl-6-fluoronaphthalen-2-ol], for which, at GDP-loaded KRAS G12D, the IC50 was 100 nM. This molecule also had an EC50 in the test on GP2D (KRAS G12D) cells of 1000 nM.
